compound: CCOC1=CC=CC=C1N=NC2=C(NN(C2=O)C3=NC(=CS3)C4=CC=CC=C4)C [BAM7]; assay: relative viability (nuclei count vs DMSO), 5 days (fraction); higher = more cells survive; settings: 0.5 µM
How it was run: (§1)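 For viability, nuclei in each treated well were divided by nuclei in vehicle wells and the median across plates was taken. Lung cancer cell lines in 1536-well plates were pinned with five library-drug doses (not always all listed) spaced by √10, cultured 5 days without medium change, and imaged at 4× after Hoechst staining, with plates passing only at control CV below 25% and at least one doubling.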

Cell Line | relative viability
NCI-H23 | 1.21
NCI-H1299 | 1.01
NCI-H647 | 1.02
CAL-12T | 1.05
NCI-H1651 | 1.02
EPLC-272H | 0.989
NCI-H2228 | 1.06
NCI-H1792 | 1.02
NCI-H1355 | 0.971
NCI-H3122 | 1.02
NCI-H1437 | 0.991
NCI-H1755 | 1.02
NCI-H2023 | 0.917
HCC-15 | 1.01
NCI-H1793 | 0.963
PC-14 | 1.04
EKVX | 1.05
LC-2-ad | 0.961
NCI-H1563 | 0.967
NCI-H1944 | 0.947
NCI-H1975 | 0.823
RERF-LC-KJ | 0.94
ABC-1 | 0.919
NCI-H358 | 0.96
NCI-H650 | 0.944
PC-3 [JPC-3] | 0.967

same assay, conditions: 5 µM

Cell Line | relative viability
NCI-H23 | 1.06
NCI-H1299 | 1.06
NCI-H647 | 1.07
CAL-12T | 1.01
NCI-H1651 | 1
EPLC-272H | 0.95
NCI-H2228 | 0.968
NCI-H1792 | 1.06
NCI-H1355 | 0.888
NCI-H3122 | 1.09
NCI-H1437 | 1.02
NCI-H1755 | 1.03
NCI-H2023 | 0.823
HCC-15 | 1.01
NCI-H1793 | 0.838
PC-14 | 1.06
EKVX | 0.982
LC-2-ad | 1
NCI-H1563 | 1.04
NCI-H1944 | 0.949
NCI-H1975 | 0.898
RERF-LC-KJ | 0.913
ABC-1 | 1.05
NCI-H358 | 1.19
NCI-H650 | 1.1
PC-3 [JPC-3] | 1.02

same assay, conditions: 15.81 µM

Cell Line | relative viability
NCI-H23 | 1.04
NCI-H1299 | 1.01
NCI-H647 | 0.894
CAL-12T | 0.952
NCI-H1651 | 1
EPLC-272H | 0.95
NCI-H2228 | 0.914
NCI-H1792 | 1.07
NCI-H1355 | 0.862
NCI-H3122 | 1.01
NCI-H1437 | 0.928
NCI-H1755 | 0.978
NCI-H2023 | 0.793
HCC-15 | 0.97
NCI-H1793 | 0.899
PC-14 | 1
EKVX | 0.843
LC-2-ad | 0.939
NCI-H1563 | 0.995
NCI-H1944 | 0.857
NCI-H1975 | 0.775
RERF-LC-KJ | 0.745
ABC-1 | 0.855
NCI-H358 | 0.942
NCI-H650 | 0.955
PC-3 [JPC-3] | 0.974

same assay, conditions: 50 µM

Cell Line | relative viability
NCI-H23 | 1.06
NCI-H1299 | 1.01
NCI-H647 | 1.07
CAL-12T | 1.07
NCI-H1651 | 1.05
EPLC-272H | 0.995
NCI-H2228 | 1.2
NCI-H1792 | 0.873
NCI-H1355 | 0.91
NCI-H3122 | 1.01
NCI-H1437 | 1.01
NCI-H1755 | 1.02
NCI-H2023 | 1.02
HCC-15 | 0.927
NCI-H1793 | 1.03
PC-14 | 1.01
EKVX | 0.86
LC-2-ad | 1.01
NCI-H1563 | 1.02
NCI-H1944 | 1
NCI-H1975 | 0.903
RERF-LC-KJ | 0.812
ABC-1 | 1.14
NCI-H358 | 0.912
NCI-H650 | 1.22
PC-3 [JPC-3] | 0.917

compound: CCn1c(-c2nonc2N)nc2c(C#CC(C)(C)O)ncc(OC[C@H]3CCCNC3)c21; assay: as above; settings: 0.01 µM
How it was run: as §1

Cell Line | relative viability
NCI-H23 | 0.918
NCI-H1299 | 0.984
NCI-H647 | 0.982
CAL-12T | 1.12
NCI-H1651 | 0.941
EPLC-272H | 0.874
NCI-H2228 | 0.938
NCI-H1792 | 0.887
NCI-H1355 | 0.932
NCI-H3122 | 1
NCI-H1437 | 0.957
NCI-H1755 | 0.989
NCI-H2023 | 0.929
HCC-15 | 0.959
NCI-H1793 | 0.936
PC-14 | 0.937
EKVX | 0.962
LC-2-ad | 0.903
NCI-H1563 | 1.01
NCI-H1944 | 0.941
NCI-H1975 | 0.932
RERF-LC-KJ | 0.959
ABC-1 | 0.934
NCI-H358 | 0.905
NCI-H650 | 0.788
PC-3 [JPC-3] | 1.02

same assay, conditions: 0.03162 µM

Cell Line | relative viability
NCI-H23 | 0.939
NCI-H1299 | 1.05
NCI-H647 | 0.995
CAL-12T | 0.997
NCI-H1651 | 0.935
EPLC-272H | 0.936
NCI-H2228 | 1.1
NCI-H1792 | 0.636
NCI-H1355 | 0.904
NCI-H3122 | 0.973
NCI-H1437 | 0.974
NCI-H1755 | 1.03
NCI-H2023 | 0.949
HCC-15 | 1.02
NCI-H1793 | 0.879
PC-14 | 1
EKVX | 0.942
LC-2-ad | 0.951
NCI-H1563 | 0.984
NCI-H1944 | 0.922
NCI-H1975 | 1
RERF-LC-KJ | 0.97
ABC-1 | 0.869
NCI-H358 | 1.01
NCI-H650 | 0.854
PC-3 [JPC-3] | 1.02

same assay, conditions: 0.1 µM

Cell Line | relative viability
NCI-H23 | 0.878
NCI-H1299 | 1.01
NCI-H647 | 0.952
CAL-12T | 0.94
NCI-H1651 | 0.95
EPLC-272H | 0.869
NCI-H2228 | 1.04
NCI-H1792 | 0.939
NCI-H1355 | 0.958
NCI-H3122 | 1.06
NCI-H1437 | 1.05
NCI-H1755 | 0.973
NCI-H2023 | 0.909
HCC-15 | 1.04
NCI-H1793 | 0.751
PC-14 | 1.11
EKVX | 0.97
LC-2-ad | 0.964
NCI-H1563 | 0.96
NCI-H1944 | 0.919
NCI-H1975 | 0.96
RERF-LC-KJ | 0.99
ABC-1 | 0.864
NCI-H358 | 0.935
NCI-H650 | 0.854
PC-3 [JPC-3] | 1.05

same assay, conditions: 0.3162 µM

Cell Line | relative viability
NCI-H23 | 0.902
NCI-H1299 | 1.01
NCI-H647 | 0.918
CAL-12T | 0.973
NCI-H1651 | 0.924
EPLC-272H | 0.91
NCI-H2228 | 0.848
NCI-H1792 | 0.908
NCI-H1355 | 0.945
NCI-H3122 | 0.991
NCI-H1437 | 0.935
NCI-H1755 | 0.903
NCI-H2023 | 0.767
HCC-15 | 0.952
NCI-H1793 | 0.859
PC-14 | 0.954
EKVX | 0.933
LC-2-ad | 0.949
NCI-H1563 | 0.901
NCI-H1944 | 0.935
NCI-H1975 | 0.921
RERF-LC-KJ | 0.966
ABC-1 | 0.768
NCI-H358 | 0.912
NCI-H650 | 0.998
PC-3 [JPC-3] | 0.996

same assay, conditions: 1 µM

Cell Line | relative viability
NCI-H23 | 0.852
NCI-H1299 | 1.04
NCI-H647 | 0.981
CAL-12T | 0.997
NCI-H1651 | 1.01
EPLC-272H | 0.87
NCI-H2228 | 0.809
NCI-H1792 | 0.932
NCI-H1355 | 0.992
NCI-H3122 | 1.01
NCI-H1437 | 1.1
NCI-H1755 | 1.01
NCI-H2023 | 0.834
HCC-15 | 0.914
NCI-H1793 | 0.942
PC-14 | 1.03
EKVX | 0.924
LC-2-ad | 0.989
NCI-H1563 | 0.89
NCI-H1944 | 1.01
NCI-H1975 | 0.843
RERF-LC-KJ | 1.05
ABC-1 | 0.696
NCI-H358 | 0.913
NCI-H650 | 0.832
